Data from patent US20230049952A1, “METHODS AND COMPOUNDS FOR RESTORING MUTANT P53 FUNCTION” (PMV Pharmaceuticals, Inc., priority 2020, published 2023).
Where “and” joins values, the source holds several entries; their conditions need not be identical. Equal entries are not always repeated.

Columns and labels:
CYP3A = CYP3A (Homo sapiens, UniProt P08684); assay: in vitro; conditions: both, microsomes, pH 7.4, % of Control Enzyme Activity, HLM; for activity at 10 min, 0.037 µM: 0.0370 μM
CYP2B6 = assay: CYP induction in human hepatocytes (mRNA and enzyme activity); conditions: for % Induction Relative to Positive Control / Fold-Change: CYP2B6 enzyme activity, control article
CYP2C9 = CYP2C9 (Homo sapiens, UniProt P11712); assay: in vitro; conditions: both, microsomes, pH 7.4, % of Control Enzyme Activity
Chain of CYP2C9 (P11712 whole entry): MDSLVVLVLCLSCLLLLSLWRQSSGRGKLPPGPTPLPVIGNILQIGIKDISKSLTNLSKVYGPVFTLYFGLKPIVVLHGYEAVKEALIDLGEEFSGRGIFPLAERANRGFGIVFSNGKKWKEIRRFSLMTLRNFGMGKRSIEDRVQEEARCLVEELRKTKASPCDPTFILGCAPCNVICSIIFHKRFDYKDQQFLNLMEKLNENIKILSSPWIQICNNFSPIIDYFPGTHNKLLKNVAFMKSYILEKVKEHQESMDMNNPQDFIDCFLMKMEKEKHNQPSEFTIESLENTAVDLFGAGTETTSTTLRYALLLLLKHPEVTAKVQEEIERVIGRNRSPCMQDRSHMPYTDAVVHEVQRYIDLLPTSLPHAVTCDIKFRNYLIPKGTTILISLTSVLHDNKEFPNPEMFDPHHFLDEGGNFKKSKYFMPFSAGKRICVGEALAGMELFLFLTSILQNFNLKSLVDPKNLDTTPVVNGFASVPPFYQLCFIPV

Chain of CYP3A (P08684 2-503): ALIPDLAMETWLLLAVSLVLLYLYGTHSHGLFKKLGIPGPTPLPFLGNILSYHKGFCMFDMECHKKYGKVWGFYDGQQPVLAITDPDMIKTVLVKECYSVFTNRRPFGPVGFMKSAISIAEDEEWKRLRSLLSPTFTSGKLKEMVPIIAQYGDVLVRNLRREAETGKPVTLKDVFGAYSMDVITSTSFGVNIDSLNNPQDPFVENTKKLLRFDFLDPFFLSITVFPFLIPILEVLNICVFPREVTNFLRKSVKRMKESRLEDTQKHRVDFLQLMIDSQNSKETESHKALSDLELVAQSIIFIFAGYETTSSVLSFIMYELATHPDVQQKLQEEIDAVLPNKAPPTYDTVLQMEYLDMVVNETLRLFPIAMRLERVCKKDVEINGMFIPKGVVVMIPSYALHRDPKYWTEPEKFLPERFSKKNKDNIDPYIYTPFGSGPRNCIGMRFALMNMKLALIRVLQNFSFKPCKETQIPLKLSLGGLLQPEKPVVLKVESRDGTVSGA

Question: Which activity at 10 min, 0.0123 µM (CYP3A; Midazolam probe) does the source give for `CC(=O)N1CCN(c2ccc(OCC3COC(Cn4ccnc4)(c4ccc(Cl)cc4Cl)O3)cc2)CC1` (stereo not drawn) [Ketoconazole, ketoconazole] here?
Answer: The activity at 10 min, 0.0123 µM was 74.5%.

Question: What about the activity at 10 min, 0.037 µM (CYP3A; Midazolam probe) of the same compound?
Answer: Its activity at 10 min, 0.037 µM is 49.9%.

Question: And the activity at 10 min, 3 µM (CYP3A; Midazolam probe)?
Answer: Its activity at 10 min, 3 µM is 5.38%.

Question: What about the activity at 10 min, 0.0123 µM (CYP3A; Testosterone probe) of the same compound?
Answer: The activity at 10 min, 0.0123 µM was 58.4%.

Question: What about the activity at 10 min, 0.037 µM (CYP3A; Testosterone probe) of the same compound?
Answer: The activity at 10 min, 0.037 µM was 32.9%.

Question: What about the activity at 10 min, 0.333 µM (CYP3A; Testosterone probe, 0.333 μM) of the same compound?
Answer: The activity at 10 min, 0.333 µM was 6.75%.

Question: What about the activity at 10 min, 1 µM (CYP3A; Testosterone probe, 1.00 μM) of the same compound?
Answer: Its activity at 10 min, 1 µM is 3.54%.

Question: And the activity at 10 min, 3 µM (CYP3A; Testosterone probe)?
Answer: Its activity at 10 min, 3 µM is 1.56%.

Question: How did the “% Induction Relative to Positive Control” value (CYP2B6; Donor 1) turn out when `CCC1(c2ccccc2)C(=O)NC(=O)NC1=O` [PB, phenobarbital] was run?
Answer: The value was 100%.

Question: And the Fold-Change (CYP2B6; Donor 1)?
Answer: The Fold-Change was 6.84.

Question: And the “% Induction Relative to Positive Control” value (CYP2B6; Donor 2)?
Answer: The value was 100%.

Question: What about the Fold-Change (CYP2B6; Donor 2) of the same compound?
Answer: Its Fold-Change is 8.56.

Question: And the “% Induction Relative to Positive Control” value (CYP2B6; Donor 3)?
Answer: The value was 100%.

Question: What about the Fold-Change (CYP2B6; Donor 3) of the same compound?
Answer: The Fold-Change was 3.36.

Question: And the “CYP2B6 mRNA % Induction Relative to Positive Control” value (CYP2B6; Donor 1, 1000 μM)?
Answer: The value was 100%.

Question: What about the “CYP2B6 mRNA Fold Change (n = 3) Mean” value (CYP2B6; Donor 1, 1000 μM) of the same compound?
Answer: The value was 24.4.

Question: What about the “CYP2B6 mRNA % Induction Relative to Positive Control” value (CYP2B6; Donor 2, 1000 μM) of the same compound?
Answer: The value was 100%.

Question: What about the “CYP2B6 mRNA Fold Change (n = 3) Mean” value (CYP2B6; Donor 2, 1000 μM) of the same compound?
Answer: Its value is 793.

Question: What about the “CYP2B6 mRNA % Induction Relative to Positive Control” value (CYP2B6; Donor 3, 1000 μM) of the same compound?
Answer: The value was 100%.

Question: And the “CYP2B6 mRNA Fold Change (n = 3) Mean” value (CYP2B6; Donor 3, 1000 μM)?
Answer: The value was 6.85.

Question: And the “CYP2B6 mRNA fold increase (positive control)” value (CYP2B6; donor 2, positive control)?
Answer: Its value is 793 fold.

Question: `O=C(O)COc1ccc(C(=O)c2cccs2)c(Cl)c1Cl` [Tienilic acid] was tested. Which activity at 20 min, 0.123 µM (CYP2C9) did it give?
Answer: Its activity at 20 min, 0.123 µM is 96.5%.

Question: What about the activity at 20 min, 0.37 µM (CYP2C9) of the same compound?
Answer: The activity at 20 min, 0.37 µM was 80.1%.

Question: What about the activity at 20 min, 3.33 µM (CYP2C9) of the same compound?
Answer: The activity at 20 min, 3.33 µM was 32.8%.

Question: And the activity at 20 min, 30 µM (CYP2C9)?
Answer: The activity at 20 min, 30 µM was 8.14%.

Question: What about the activity at 20 min, […] (CYP2C9) of the same compound?
Answer: Its activity at 20 min, […] is 101% and 57.4%.

Question: And the activity at 30 min, 0.123 µM (CYP2C9)?
Answer: The activity at 30 min, 0.123 µM was 74.4%.

Question: And the activity at 30 min, 0.37 µM (CYP2C9)?
Answer: Its activity at 30 min, 0.37 µM is 36.8%.

Question: And the activity at 30 min, 3.33 µM (CYP2C9)?
Answer: Its activity at 30 min, 3.33 µM is 9.24%.

Question: What about the activity at 30 min, 30 µM (CYP2C9) of the same compound?
Answer: The activity at 30 min, 30 µM was 3.84%.
